Assay results: EP0667868B1, “CEPHEM COMPOUNDS” (FUJISAWA PHARMACEUTICAL CO., LTD., priority 1993, dated 1995)
Converted amounts (≈) assume the structure as drawn.

What was measured:
[1] = Urinary excretion after oral administration (disc-plate diffusion bioassay); type: in vivo, Male JCL SD strain rats; conditions: rat; rats, 20 mg /kg oral, suspended in 0.5% methyl cellulose; urine 0 to 6 and 6 to 24 hours; Bacillus subtilis ATCC 6633 as test organism; read-out: Urinary recovery in 24 hours
Method: Male JCL SD strain rats (age, 6-7 weeks) were used. Test compound was suspended in 0.5% methyl cellulose solution. The rats were starved overnight before dosing with 20 mg /kg. Urine samples were collected at 0 to 6 and 6 to 24 hours after oral administration were measured by the disc-plate diffusion method using Bacillus subtilis ATCC 6633 as test organism and sodium citrate agar (0.8% sodium citrate, 0.5% polypeptone, 0.3% beef extract and 1.0% agar) as the test medium. The plate were incubated at 37°C for 18 hours and the zone of inhibition were measured.

S. aureus = test: Minimal inhibitory concentration, two-fold agar-plate dilution method; type: cell-based; conditions: Staphylococcus aureus, HI-agar, 37°C for 20 hours
Method: (§1) In vitro antibacterial activity was determined by the two-fold agar-plate dilution method as described below.
(§2) One loopful of an overnight culture of each test strain in Trypticase-soy broth (10^8 viable cells per ml) was streaked on heart infusion agar (HI-agar)containing graded concentrations of representative test compound, and the minimal inhibitory concentration (MIC) was expressed in terms of µg/ml after incubation at 37°C for 20 hours.

H. influenzae = test: as above; type: cell-based; conditions: Haemophilus influenzae, HI-agar, 37°C for 20 hours
Method: as §1, §2

E. coli = test: as above; type: cell-based; conditions: Escherichia coli, HI-agar, 37°C for 20 hours
Method: as §1, §2

Compound	dose excreted at 24 h [1]	MIC (S. aureus)	MIC (H. influenzae)	MIC (E. coli)
Nc1nc(/C(=N/O)C(=O)N[C@@H]2C(=O)N3C(C(=O)O)=C(SCc4cn[nH]c4)CS[C@H]23)cs1 [(3), 7β-[2-(2-Aminothiazol-4-yl)-2-(Z)-(hydroxyimino)-acetamido]-3-[(pyrazol-4-yl)methylthio]-3-cephem-4-carboxylic acid]	50%	0.23 µg/mL (≈ 0.478 µM)	0.129 µg/mL (≈ 0.268 µM)	0.033 µg/mL (≈ 0.0685 µM)
Cc1nnsc1CSC1=C(C(=O)O)N2C(=O)[C@@H](NC(=O)/C(=N\O)c3csc(N)n3)[C@H]2SC1 [Comparative (2), 7β-[2-(2-Aminothiazol-4-yl)-2-(Z)-(hydroxyimino)-acetamido]-3-[(4-methyl-1,2,3-thiadiazol-5-yl)methylthio]-3-cephem-4-carboxylic acid]	–	0.167 µg/mL (≈ 0.325 µM)	0.118 µg/mL (≈ 0.23 µM)	0.072 µg/mL (≈ 0.14 µM)
Nc1nc(/C(=N/O)C(=O)N[C@@H]2C(=O)N3C(C(=O)O)=C(SCc4ccncc4)CS[C@H]23)cs1 [Comparative (1), 7β-[2-(2-Aminothiazol-4-yl)-2-(Z)-(hydroxyimino)-acetamido]-3-[(4-pyridyl)methylthio]-3-cephem-4-carboxylic acid]	–	0.143 µg/mL (≈ 0.29 µM)	0.067 µg/mL (≈ 0.136 µM)	0.061 µg/mL (≈ 0.124 µM)
